Test results published in patent US20080207693A1, “Mitotic Kinesin Inhibitors” (priority 2005, published 2008).

Biological target: T1, human KSP motor domain (KSP(367H)) (Homo sapiens, UniProt P52732)
T1 construct: were used to amplify the motor domain and the neck linker region; made in house; host or cells: E. coli BL21 (DE3), vector pRSETa
T1 sequence (P52732 18-359 limits assumed): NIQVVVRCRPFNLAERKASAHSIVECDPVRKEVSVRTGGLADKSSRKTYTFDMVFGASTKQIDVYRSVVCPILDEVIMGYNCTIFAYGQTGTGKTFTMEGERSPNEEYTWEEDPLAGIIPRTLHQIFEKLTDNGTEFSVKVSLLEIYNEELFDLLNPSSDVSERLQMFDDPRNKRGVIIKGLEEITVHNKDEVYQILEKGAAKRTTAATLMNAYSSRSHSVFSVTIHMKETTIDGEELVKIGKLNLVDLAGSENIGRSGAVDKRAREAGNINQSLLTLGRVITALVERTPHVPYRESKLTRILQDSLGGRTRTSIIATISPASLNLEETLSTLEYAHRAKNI
Assay: Kinesin ATPase in vitro assay
Format: biochemical
Settings: KSP motor domain with microtubules, 1 mM ATP, 23° C.; free phosphate by quinaldine red/ammonium molybdate
Text: I. Kinesin ATPase In Vitro Assay
Cloning and Expression of Human Poly-Histidine Tagged KSP Motor Domain (KSP(367H))
Plasmids for the expression of the human KSP motor domain construct were cloned by PCR using a pBluescript full length human KSP construct (Blangy et al., Cell, vol. 83, pp 1159-1169, 1995) as a template. The N-terminal primer 5′-[…] (SEQ. ID. NO.: 1) and the C-terminal primer 5′-[…] […] (SEQ. ID. NO.: 2) were used to amplify the motor domain and the neck linker region. The PCR products were digested with AseI and XhoI, ligated into the NdeI/XhoI digestion product of pRSETa (Invitrogen) and transformed into E. coli BL21 (DE3).
Cells were grown at 37° C. to an OD600 of 0.5. […]
The kinesin motor domain is incubated with microtubules, 1 mM ATP (1:1 MgCl2: Na-ATP), and compound at 23° C. in buffer containing 80 mM K-HEPES (pH 7.0), 1 mM EGTA, 1 mM DTT, 1 mM MgCl2, and 50 mM KCl. […] Free phosphate from the ATP hydrolysis reaction is measured via a quinaldine red/ammonium molybdate assay by adding 150 μl of quench C buffer containing a 2:1 ratio of quench A:quench B. Quench A contains 0.1 mg/ml quinaldine red and 0.14% polyvinyl alcohol; quench B contains 12.3 mM ammonium molybdate tetrahydrate in 1.15 M sulfuric acid. The reaction is incubated for 10 minutes at 23° C., and the absorbance of the phospho-molybdate complex is measured at […].

CN(C(=O)N1CC(c2cc(F)ccc2F)=C[C@@]1(CO)c1ccccc1)[C@H]1CCN(CCC[Si](C)(C)C)C[C@H]1F [Compound 11-1, (2S)-4-(2,5-difluorophenyl)-N-{(3R,4S)-3-fluoro-1-[3-(trimethylsilyl)propyl]piperidin-4-yl}-2-(hydroxymethyl)-N-methyl-2-phenyl-2,5-dihydro-1H-pyrrole-1-carboxamide]
IC50: ≤ 50 µM
